Results as given in patent US20020061836A1, “Methods for altering SXR activation using peptide mimetic HIV protease inhibitor SXR ligands” (priority 2000, published 2002).

Assays:
[1] = molecular target: T1, human RXRα ligand binding domain (Homo sapiens, UniProt P19793); assay: Gal-L-RXR Gal4 reporter transient transfection assay in CV-1 cells; type: cell-based; conditions: 10 μM paclitaxel
T1 construct: expressed in transfected cells; host or cells: CV-1
T1 sequence (P19793 203-462): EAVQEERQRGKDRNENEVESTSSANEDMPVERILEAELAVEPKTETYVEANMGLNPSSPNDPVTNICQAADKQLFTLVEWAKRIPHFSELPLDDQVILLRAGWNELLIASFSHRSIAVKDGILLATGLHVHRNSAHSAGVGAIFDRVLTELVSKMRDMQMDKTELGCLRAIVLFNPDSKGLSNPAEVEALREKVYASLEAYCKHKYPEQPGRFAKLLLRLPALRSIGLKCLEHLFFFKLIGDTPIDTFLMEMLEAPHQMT
Source text: The Gal4 reporter activity was normalized to the internal β-galactosidase control and the data plotted as fold activation relative to untreated cells. All transfections contained the Gal4 reporter and a β-galactosidase expression vector as an internal control.

human LXRα = molecular target: T2, human LXRα (Homo sapiens, UniProt Q13133); assay: Nuclear receptor specificity transfection assay; type: cell-based; conditions: 10 μM paclitaxel
T2 construct: expressed in transfected cells; host or cells: CV-1
T2 sequence (Q13133 1-447): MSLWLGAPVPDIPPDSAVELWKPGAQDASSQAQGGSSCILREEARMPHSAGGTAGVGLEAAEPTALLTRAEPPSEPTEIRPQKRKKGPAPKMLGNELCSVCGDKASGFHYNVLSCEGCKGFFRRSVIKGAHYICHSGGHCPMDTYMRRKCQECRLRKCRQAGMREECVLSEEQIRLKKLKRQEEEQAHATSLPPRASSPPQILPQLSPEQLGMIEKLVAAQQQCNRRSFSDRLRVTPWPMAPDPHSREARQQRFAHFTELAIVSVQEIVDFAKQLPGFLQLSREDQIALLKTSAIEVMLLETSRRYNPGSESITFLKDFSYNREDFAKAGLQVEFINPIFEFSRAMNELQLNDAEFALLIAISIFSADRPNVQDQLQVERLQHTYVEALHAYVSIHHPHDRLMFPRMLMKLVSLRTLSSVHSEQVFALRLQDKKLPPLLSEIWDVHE

mouse PPARα = molecular target: T3, mouse PPARα (Mus musculus, UniProt P23204); assay: Nuclear receptor specificity transfection assay; type: cell-based; conditions: 10 μM paclitaxel
T3 construct: expressed in transfected cells; host or cells: CV-1
T3 sequence (P23204 1-468): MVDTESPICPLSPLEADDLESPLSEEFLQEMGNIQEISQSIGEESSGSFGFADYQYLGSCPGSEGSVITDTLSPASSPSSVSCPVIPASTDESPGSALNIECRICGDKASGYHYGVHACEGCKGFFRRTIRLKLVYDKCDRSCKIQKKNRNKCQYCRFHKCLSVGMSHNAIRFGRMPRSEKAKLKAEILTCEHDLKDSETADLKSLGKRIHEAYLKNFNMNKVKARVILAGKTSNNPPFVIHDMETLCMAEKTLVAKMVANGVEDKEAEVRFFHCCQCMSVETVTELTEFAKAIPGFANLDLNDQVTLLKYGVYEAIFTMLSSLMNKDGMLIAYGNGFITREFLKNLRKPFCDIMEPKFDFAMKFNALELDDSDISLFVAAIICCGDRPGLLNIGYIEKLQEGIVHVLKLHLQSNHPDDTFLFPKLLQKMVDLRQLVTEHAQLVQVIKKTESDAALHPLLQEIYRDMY

mouse PPARγ = molecular target: T4, mouse PPARγ (Mus musculus, UniProt P37238); assay: Nuclear receptor specificity transfection assay; type: cell-based; conditions: 10 μM paclitaxel
T4 construct: expressed in transfected cells; host or cells: CV-1
T4 sequence (P37238 whole entry): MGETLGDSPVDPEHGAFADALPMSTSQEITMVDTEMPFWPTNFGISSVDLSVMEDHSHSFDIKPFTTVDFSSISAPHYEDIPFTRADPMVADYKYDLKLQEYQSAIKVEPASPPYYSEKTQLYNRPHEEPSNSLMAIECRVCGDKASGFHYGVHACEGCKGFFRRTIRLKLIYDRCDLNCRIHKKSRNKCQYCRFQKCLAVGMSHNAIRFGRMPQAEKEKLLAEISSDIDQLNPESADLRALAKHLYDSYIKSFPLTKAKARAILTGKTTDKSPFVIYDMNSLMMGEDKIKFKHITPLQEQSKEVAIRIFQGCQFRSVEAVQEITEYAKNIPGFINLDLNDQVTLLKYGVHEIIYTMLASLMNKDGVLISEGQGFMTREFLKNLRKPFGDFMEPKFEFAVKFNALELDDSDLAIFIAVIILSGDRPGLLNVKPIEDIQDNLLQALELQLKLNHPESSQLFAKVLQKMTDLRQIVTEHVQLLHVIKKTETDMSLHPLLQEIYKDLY

mouse PPARδ = molecular target: T5, mouse PPARδ (Mus musculus, UniProt P35396); assay: Nuclear receptor specificity transfection assay; type: cell-based; conditions: 10 μM paclitaxel
T5 construct: expressed in transfected cells; host or cells: CV-1
T5 sequence (P35396 1-440): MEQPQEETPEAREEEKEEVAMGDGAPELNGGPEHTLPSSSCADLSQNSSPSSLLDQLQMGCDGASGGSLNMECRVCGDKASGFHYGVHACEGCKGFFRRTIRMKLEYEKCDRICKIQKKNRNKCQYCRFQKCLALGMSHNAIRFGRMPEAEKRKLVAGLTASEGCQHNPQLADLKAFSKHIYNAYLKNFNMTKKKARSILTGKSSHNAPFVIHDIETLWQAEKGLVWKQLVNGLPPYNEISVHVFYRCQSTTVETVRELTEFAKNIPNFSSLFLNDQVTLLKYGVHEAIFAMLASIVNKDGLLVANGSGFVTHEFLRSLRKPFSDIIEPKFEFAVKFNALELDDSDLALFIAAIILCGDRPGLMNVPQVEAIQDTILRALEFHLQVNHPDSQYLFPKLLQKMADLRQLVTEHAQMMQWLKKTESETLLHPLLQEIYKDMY

[2] = test system: LS180 human colon cancer cells; assay: [14C]-paclitaxel efflux from pretreated LS180 cells; type: cell-based; conditions: LS180 cells induced 48 hours with 10 μM paclitaxel, 10 μM docetaxel or 100 nM LG268
Method: Taxane-induced drug efflux was measured using pretreated LS180 human colon cancer cells. The rate of drug efflux was measured. […] Individual data points are the means of triplicate determinations, error bars represent standard deviation and the lines are lines of regression. The slope of each line (rate of efflux) was compared to the slope obtained in the control (untreated) cells using an analysis of covariance. […] The entire experiment was performed three times with similar results. […] The cells were then incubated in media supplemented with 10 μM [^14C]-paclitaxel (4.9 μCi/umol, Moravek Biochemicals, Brea, Calif.) for 15 minutes. The uptake of ^14C-paclitaxel reached maximum levels at 10-12 minutes (data not shown). After 15 minutes, the cells were then rapidly centrifuged through silicone oil to remove all traces of extracellular radioactivity, resuspended in fresh media, and cell counts determined. At multiple time points over the next 10 minutes, triplicate aliquots of the cell suspension (approx. 1×10^5 cells/aliquot) were again centrifuged through silicon oil and the radioactivity in the cell pellet measured by quench-corrected liquid scintillation counting. The rate of [^14C]-paclitaxel efflux was determined as the slope of the [^14C]-paclitaxel versus time plots using all data. The slope for each inducer was compared to the slope obtained in the control (untreated) cells using an analysis of covariance.

[3] = test system: thyroid hormone receptor β (TRβ); conditions: 10 μM paclitaxel
P-glycoprotein = P-glycoprotein (Mus musculus, UniProt P21447); conditions: orally administered; cited from earlier work
P-glycoprotein, sequence (P21447 whole entry): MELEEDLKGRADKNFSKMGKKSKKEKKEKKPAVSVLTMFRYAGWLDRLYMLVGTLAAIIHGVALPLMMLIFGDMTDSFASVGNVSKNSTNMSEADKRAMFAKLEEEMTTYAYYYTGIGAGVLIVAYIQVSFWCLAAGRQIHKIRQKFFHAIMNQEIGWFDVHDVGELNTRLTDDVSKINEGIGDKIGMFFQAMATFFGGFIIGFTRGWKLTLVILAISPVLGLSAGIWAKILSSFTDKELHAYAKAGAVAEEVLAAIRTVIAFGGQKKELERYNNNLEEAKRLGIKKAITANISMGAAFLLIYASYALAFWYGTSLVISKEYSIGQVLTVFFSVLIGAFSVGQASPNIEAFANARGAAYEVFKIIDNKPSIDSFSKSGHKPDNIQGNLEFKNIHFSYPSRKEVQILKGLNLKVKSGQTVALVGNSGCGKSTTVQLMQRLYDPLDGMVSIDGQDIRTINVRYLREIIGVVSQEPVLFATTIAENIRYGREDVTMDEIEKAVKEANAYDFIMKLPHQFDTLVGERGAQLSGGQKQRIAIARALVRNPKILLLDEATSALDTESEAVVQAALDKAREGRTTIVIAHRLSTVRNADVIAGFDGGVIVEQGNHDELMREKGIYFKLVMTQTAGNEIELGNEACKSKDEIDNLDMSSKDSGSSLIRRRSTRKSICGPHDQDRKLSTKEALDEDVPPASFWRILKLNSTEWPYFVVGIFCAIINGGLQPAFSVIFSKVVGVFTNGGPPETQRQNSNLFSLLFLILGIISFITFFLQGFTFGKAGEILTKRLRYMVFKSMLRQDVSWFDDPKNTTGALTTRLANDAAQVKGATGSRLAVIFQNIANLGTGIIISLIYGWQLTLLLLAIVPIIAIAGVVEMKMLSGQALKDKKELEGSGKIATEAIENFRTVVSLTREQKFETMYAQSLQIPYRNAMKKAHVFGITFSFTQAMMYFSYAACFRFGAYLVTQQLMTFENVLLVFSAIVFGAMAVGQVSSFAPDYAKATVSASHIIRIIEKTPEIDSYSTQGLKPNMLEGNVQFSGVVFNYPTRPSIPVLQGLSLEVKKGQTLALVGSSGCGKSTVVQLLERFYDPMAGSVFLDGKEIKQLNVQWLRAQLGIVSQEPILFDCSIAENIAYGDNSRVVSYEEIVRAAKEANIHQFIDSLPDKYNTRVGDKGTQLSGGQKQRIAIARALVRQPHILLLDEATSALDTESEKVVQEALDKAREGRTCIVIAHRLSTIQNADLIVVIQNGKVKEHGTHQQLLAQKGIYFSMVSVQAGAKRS

CYP3A4 and CYP2C8 = conditions: read-out: Km for degradation of paclitaxel by CYP3A4 and CYP2C8; cited from earlier work
CV-1 cells = assay: Potential cytotoxic effects at the concentrations and treatment times used; conditions: at the indicated concentrations and treatment times

With CC(=O)O[C@H]1C(=O)[C@@]2(C)[C@H]([C@H](OC(=O)c3ccccc3)[C@]3(O)C[C@H](OC(=O)[C@H](O)[C@@H](NC(=O)c4ccccc4)c4ccccc4)C(C)=C1C3(C)C)[C@]1(OC(C)=O)CO[C@@H]1C[C@@H]2O [paclitaxel] the “effect on RXR reporter activity” value [1] was “no effect”, the “effect on LXRα reporter activity” value (human LXRα) was “no effect” and the “effect on PPARα reporter activity” value (mouse PPARα) was “no effect”. For the same compound, the “effect on PPARγ reporter activity” value (mouse PPARγ) was “no effect”, the “effect on PPARδ reporter activity” value (mouse PPARδ) was “no effect” and the “rate of [14C]-paclitaxel efflux versus untreated cells” value [2] was “significantly faster”. For the same compound, the “effect on TRβ reporter activity” value [3] was “no effect”, the “fecal excretion for which P-glycoprotein is responsible” value (P-glycoprotein) was 85% and the Km (CYP3A4 and CYP2C8) was ~10 µM. For the same compound, the potential cytotoxic effects (CV-1 cells) was “minimal”.
